PubChem BioAssay AID2060513 (Molecular Pharmacology Branch, DTP, NCI, 2025)

Tested on: 299254-011-R-J1-PDC complex spheroids viability
Assay: Anticancer human tumor 299254-011-R-J1-PDC patient-derived melanoma cell line growth inhibition [GQUAD]
Details: for IC50: curve of first compound; for viability, T/C: stronger effect = lower value
Outline: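 Tumor cells were grown as complex spheroids with HUVEC endothelial cells and mesenchymal stem cells as stroma. G-quadruplex stabilizers were combined with targeted agents over half-log dilutions from near the clinical Cmax, or from 10 microM.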

[1] = second compound 0.0316 µM, first compound 0.0316 µM
[2] = second compound 0.0316 µM, first compound 0.1 µM
[3] = second compound 0.0316 µM, first compound 0.316 µM
[4] = second compound 0.0316 µM, first compound 1 µM
[5] = second compound 0.0316 µM, first compound 3.16 µM
[6] = second compound 0.0316 µM, first compound 10 µM
[7] = second compound 0.1 µM, first compound 0.0316 µM
[8] = second compound 0.1 µM, first compound 0.1 µM
[9] = second compound 0.1 µM, first compound 0.316 µM
[10] = second compound 0.1 µM, first compound 1 µM
[11] = second compound 0.1 µM, first compound 3.16 µM
[12] = second compound 0.1 µM, first compound 10 µM
[13] = second compound 0.316 µM, first compound 0.0316 µM
[14] = second compound 0.316 µM, first compound 0.1 µM
[15] = second compound 0.316 µM, first compound 0.316 µM
[16] = second compound 0.316 µM, first compound 1 µM
[17] = second compound 0.316 µM, first compound 3.16 µM
[18] = second compound 0.316 µM, first compound 10 µM
[19] = second compound 1 µM, first compound 0.0316 µM
[20] = second compound 1 µM, first compound 0.1 µM
[21] = second compound 1 µM, first compound 0.316 µM
[22] = second compound 1 µM, first compound 1 µM
[23] = second compound 1 µM, first compound 3.16 µM
[24] = second compound 1 µM, first compound 10 µM
[25] = second compound 3.16 µM, first compound 0.0316 µM
[26] = second compound 3.16 µM, first compound 0.1 µM
[27] = second compound 3.16 µM, first compound 0.316 µM
[28] = second compound 3.16 µM, first compound 1 µM
[29] = second compound 3.16 µM, first compound 3.16 µM
[30] = second compound 3.16 µM, first compound 10 µM
[31] = second compound 10 µM, first compound 0.0316 µM
[32] = second compound 10 µM, first compound 0.1 µM
[33] = second compound 10 µM, first compound 0.316 µM
[34] = second compound 10 µM, first compound 1 µM
[35] = second compound 10 µM, first compound 3.16 µM
[36] = second compound 10 µM, first compound 10 µM
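Also: spheroids exposed to the agents for seven days before readout.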
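For viability, T/C in this document: percent viability relative to DMSO vehicle control wells = 100%.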

Work on `O=C(NO)c1cnc(N2CCN(S(=O)(=O)c3ccc4ccccc4c3)CC2)nc1` + Cc1[nH]c2ccc(F)cc2c1-c1nc2c3cccnc3c3ncccc3c2[nH]1 yielded an IC50 (second compound 0.0316 µM) of 496 nM, an IC50 (second compound 0.1 µM) of 602 nM and an IC50 (second compound 0.316 µM) of 988 nM. It also gave an IC50 (second compound 1 µM) of 1530 nM, an IC50 (second compound 3.16 µM) of 1300 nM and an IC50 (second compound 10 µM) of 1480 nM. For the same compound, the viability, T/C [1] was 119%, the viability, T/C [2] was 98% and the viability, T/C [3] was 76.8%. The viability, T/C [4] was 9.39%, the viability, T/C [5] was 0.24% and the viability, T/C [6] was 0.27%. It also gave a viability, T/C [7] of 99.2%, a viability, T/C [8] of 111% and a viability, T/C [9] of 90.2%. It also gave a viability, T/C [10] of 18.1%, a viability, T/C [11] of 0.2% and a viability, T/C [12] of 0.25%. The viability, T/C [13] was 91.4%, the viability, T/C [14] was 102% and the viability, T/C [15] was 88.8%. For the same compound, the viability, T/C [16] was 50.3%, the viability, T/C [17] was 0.17% and the viability, T/C [18] was 0.21%. For the same compound, the viability, T/C [19] was 112%, the viability, T/C [20] was 91.6% and the viability, T/C [21] was 80.9%. It also gave a viability, T/C [22] of 79.2%, a viability, T/C [23] of 0.19% and a viability, T/C [24] of 0.22%. For the same compound, the viability, T/C [25] was 99.2%, the viability, T/C [26] was 120% and the viability, T/C [27] was 108%. For the same compound, the viability, T/C [28] was 64.5%, the viability, T/C [29] was 0.22% and the viability, T/C [30] was 0.21%. The viability, T/C [31] was 87.8%, the viability, T/C [32] was 103% and the viability, T/C [33] was 99.6%. The viability, T/C [34] was 75.4%, the viability, T/C [35] was 0.25% and the viability, T/C [36] was 0.25%.
In the case of `O=c1[nH]cc(F)c(=O)[nH]1` + CN(C)c1ccc(Nc2c3ccc(NC(=O)CCN4CCCC4)cc3nc3cc(NC(=O)CCN4CCCC4)ccc23)cc1, the IC50 (second compound 0.0316 µM) is reported as > 10000 nM, the IC50 (second compound 0.1 µM) is reported as > 10000 nM and the IC50 (second compound 0.316 µM) is reported as > 10000 nM. For the same compound, the IC50 (second compound 1 µM) was > 10000 nM, the IC50 (second compound 3.16 µM) was > 10000 nM and the IC50 (second compound 10 µM) was > 10000 nM. For the same compound, the viability, T/C [1] was 93.3%, the viability, T/C [2] was 106% and the viability, T/C [3] was 105%. The viability, T/C [4] was 104%, the viability, T/C [5] was 110% and the viability, T/C [6] was 82.9%. For the same compound, the viability, T/C [7] was 79.3%, the viability, T/C [8] was 91.4% and the viability, T/C [9] was 90.7%. The viability, T/C [10] was 92.2%, the viability, T/C [11] was 86.7% and the viability, T/C [12] was 91.5%. The viability, T/C [13] was 89.2%, the viability, T/C [14] was 106% and the viability, T/C [15] was 80.2%. For the same compound, the viability, T/C [16] was 93.3%, the viability, T/C [17] was 104% and the viability, T/C [18] was 82.6%. It also gave a viability, T/C [19] of 106%, a viability, T/C [20] of 91.3% and a viability, T/C [21] of 93.3%. For the same compound, the viability, T/C [22] was 84.6%, the viability, T/C [23] was 103% and the viability, T/C [24] was 101%. The viability, T/C [25] was 82.7%, the viability, T/C [26] was 103% and the viability, T/C [27] was 112%. For the same compound, the viability, T/C [28] was 95.1%, the viability, T/C [29] was 115% and the viability, T/C [30] was 106%. It also gave a viability, T/C [31] of 91.3%, a viability, T/C [32] of 96.8% and a viability, T/C [33] of 98.4%. It also gave a viability, T/C [34] of 94.7%, a viability, T/C [35] of 90.9% and a viability, T/C [36] of 96.3%.
